In US9334257B2, “Methods of purifying and identifying the presence of and levels of procyanidin oligomeric compounds” (The Hershey Company, priority 2012, dated 2016):

Assay: Partition coefficient of cocoa procyanidin oligomers in the CPC biphasic solvent system
Assay type: physicochemical
Conditions: typical CPC runs as described; biphasic ethyl acetate:ethanol:water (6:1:5), ascending mode; unfermented cocoa bean sample of 8.5 grams
Method: A sample is mixed with water and prepared for FCPC with a KROMATON device and rotor. Columns are prepared with biphasic solvent mixture of ethyl acetate:ethanol:water at 6:1:5 ratio. The solvent used can be modified from this ratio by calculating the partition coefficients and comparing to that of the ethyl acetate:ethanol:water example. The FCPC is run in ascending mode for purifying procyanidins, so that the mobile phase is the upper phase in the resting columns.
These quantities are isolated from an unfermented cocoa bean sample of 8.5 grams. In comparison, with a diol HPLC column, 150×30 mm, injecting about 270 mg of the same sample per run yields only about 25 mg of DP2-4 and less than 1 mg of DP11-12. Clearly, the CPC methods of the invention provide commercially viable methods for producing usable quantities of a range of procyanidin oligomers, especially from cocoa sources.

| Partition coefficient | SMILES |
| --- | --- |
| 0.84 | Oc1cc(O)c2c(c1)O[C@H](c1ccc(O)c(O)c1)[C@H](O)C2 [epicatechin] |
| 0.63 | Oc1cc(O)c2c(c1)O[C@H](c1ccc(O)c(O)c1)[C@H](O)[C@H]2c1c(O)cc(O)c2c1O[C@H](c1ccc(O)c(O)c1)[C@H](O)C2 [procyanidin B2] |
| 0.94 | Oc1cc(O)c2c(c1)O[C@H](c1ccc(O)c(O)c1)[C@H](O)[C@H]2c1c(O)cc2c(c1O)C[C@@H](O)[C@@H](c1ccc(O)c(O)c1)O2 [procyanidin B5] |
